Source: patent publication US20240335497A1, “PULSE PROTEIN-BASED COMPOSITION FOR ACTIVATING THE SYNTHESIS OF FGF19” (ROQUETTE FRERES, priority 2021, published 2024)

Tested on: FGF19
Assay: Expression of FGF19 mRNA in HT29 cells by RT-qPCR
Format: cell-based, human
Details: 6 h; for increase of expression of the FGF19 gene compared to control (carrier=DMSO): Example 5, HT29 cells; for increase of expression of the FGF19 gene compared with control (carrier=DMSO): Example 6, HT29 cells
From the text: For cell cultures, the HT29 (ECACC 91072201), HT29-MTX and Caco-2 lines derived from a human colorectal adenocarcinoma are used, conventionally used as cell lines representative of human enterocytes. The cells are systematically cultured in Dulbecco's Modified Eagle Medium (DMEM): 4.5 g/L of glucose supplemented with 1% of sodium pyruvate, 1% of penicillin-streptomycin and 10% of decomposed fetal-bovine serum (FBS) (Eurobio, Les Ulis, France). For the 12-well and 96-well plate experiments, the HT29 cells were seeded with a density of 7.5×10^4 cells/cm^2 with a medium changed every 2 days and the cells were exposed to different experimental conditions 2 days after confluence with a depleted complete medium in FBS. For the 12-well plates (Costar®, Cambridge, MA), Caco-2 and HT29-MTX cells were seeded in a ratio of 1:1 with a density of 2.5×10^4 cells/cm^2. The cells were cultured for 14 days in a complete medium to allow differentiation. The medium was changed in the two compartments every two days until exposure to the complete medium was depleted in the FBS. The integrity of the cellular monolayer was evaluated by measuring the transepithelial electrical resistance (TEER) using a Millicell-ERS (Millipore Corp., Billerica, MA). The cell culture was sourced from Dutscher (Issy-les-Moulineaux, France), unless specified otherwise.
The various conditions of the carrier as PD were dissolved in PBS and the agonists were dissolved in DMSO. After exposure, the cell supernatants were stored at −80° C. for the measurements of the secretion of FGF19 proteins, and the cell monolayers were maintained at −80° C. until total extraction of the RNA.
The effect of this exposure is measured by quantifying the messenger RNA of the FGF19 using the following protocol: the expression of the target genes was evaluated by quantifying their mRNA level in the cells by RT-qPCR. The total RNA was isolated using the TRI-Reagent solution (Sigma Aldrich). First-strand complementary DNA was synthesized from 1 μg of total RNA using the TAKARA Prime ScriptMC RT reagent kit (TAKARA Bio, Saint-Germain-en-Laye, France). The qPCR tests were carried out using the SYBR® Premix Ex-Taq™ kit (TAKARA Bio) on Rotor-Gene™ 6000 (Corbet Research, Mortlake, Australia). The mRNA levels of the human TATA binding protein (TBP) were used to normalize the data.
[FIG. 1] summarizes the results obtained. The HT29 cells were exposed to the various PDs alone or in combination with an FXR agonist to determine their potential capacity to increase the expression of the FGF19 gene. […]
The capacity of the RQ3 and RQ7 digestates to increase the level of expression of the FGF19 mRNA and also the production and secretion of proteins was then evaluated. […]

For CC(C)c1onc(-c2c(Cl)cccc2Cl)c1COc1ccc(C=Cc2cccc(C(=O)O)c2)c(Cl)c1 [GW4064, 3-(2,6-Dichlorophenyl)-4-(3′-carboxy-2-chlorostilben-4-yl)oxymethyl-5-isopropylisoxazole], the “increase of expression of the FGF19 gene compared to control (carrier=DMSO)” value (GW4064 0.1 μM alone) was 2 times, the “increase of expression of the FGF19 gene compared to control (carrier=DMSO)” value (GW4064 1 μM alone) was 6.2 times and the “increase of expression of the FGF19 gene compared with control (carrier=DMSO)” value (GW4064 0.1 μM alone) was 2.3 times. The “increase of expression of the FGF19 gene compared with control (carrier=DMSO)” value (GW4064 1 μM alone) was 6.6 times.
